Test results as given in patent US5463118A, “N-(l-aspartyl)amino alcohol derivative and sweetener containing the same” (Takasago International Corporation, priority 1987, dated 1995).
Where a SMILES comes first, the peptide text is derived from it.

Assay: stability of aqueous solution (percent remaining by HPLC, 0.1M phosphate buffer pH 4.0, 80° C.)
Type: physicochemical
Conditions: general statement
Protocol: Each of compounds A and B, APM and L-aspartyl-DL-aminomalonic acid methyl fenchyl ester as disclosed in JP-A-49-30566, which will be abbreviated as "AMF" hereinafter, was dissolved in a 0.1M phosphate buffer solution (pH 4.0) at a concentration of 0.2%. The obtained solution was maintained at 80° C. and the percent remaining was monitored by high performance liquid chromatography with a lapse of time to thereby compare the stabilities of these solutions with each other.

heat stability	Compound	stability in acidic aqueous solutions
good in heat stability	C[C@@H](NC(=O)[C@@H](N)CC(=O)O)[C@H](O)CC1CC2CCC1(C)C2 (stereo partly drawn) [(2R,3R)-3-N-(L-aspartyl)amino-1-(1-methyl-2-norbornyl)-2-butanol]	excellent in stability in acidic aqueous solutions
good in heat stability	CC1C2CCC(C2)C1C[C@@H](O)[C@@H](C)NC(=O)[C@@H](N)CC(=O)O (stereo partly drawn) [(2R,3R)-3-N-(L-aspartyl)amino-1-(3-methyl-2-norbornyl)-2-butanol]	excellent in stability in acidic aqueous solutions

Assay: taste intensity threshold value by a limit method, panel of five skilled flavorists
Conditions: dissolved in water; limit method; five skilled flavorists
Protocol: Each of (2R,3R)-3-N-(L-aspartyl)amino-1-2-butanol (XVI') obtained in Example 2, 2-8), which will be referred to as "compound A" hereinafter, the (2R,3R)-3-N-(L-aspartyl)amino-1-2-butanol (XVII) obtained in Example 1, 1-15), which will be referred to as "compound B" hereinafter, APM and sucrose was dissolved in water. The threshold value of each compound was determined by a limit method by a panel consisting of five skilled flavorists.

Compound	Taste intensity threshold value
COC(=O)[C@H](Cc1ccccc1)NC(=O)[C@@H](N)CC(=O)O [APM, L-aspartyl-L-phenylalanine methyl ester, reference compound] (H-Asp-Phe-OMe)	0.004%
C[C@@H]1[C@H]2CC[C@H](C2)[C@H]1C[C@@H](O)[C@@H](C)NC(=O)[C@@H](N)CC(=O)O [Compound A, (2R,3R)-3-N-(L-aspartyl)amino-1-2-butanol]	0.00024%
C[C@@H](NC(=O)[C@@H](N)CC(=O)O)[C@H](O)C[C@@H]1C[C@@H]2CC[C@@]1(C)C2 [Compound B, (2R,3R)-3-N-(L-aspartyl)amino-1-2-butanol]	0.00018%
OC[C@H]1O[C@@](CO)(O[C@H]2O[C@H](CO)[C@@H](O)[C@H](O)[C@H]2O)[C@@H](O)[C@@H]1O [Sucrose, sucrose, reference compound]	0.6%

Same assay, conditions: sucrose = 1; from Table 1

Compound	Degree of sweetness
COC(=O)[C@H](Cc1ccccc1)NC(=O)[C@@H](N)CC(=O)O [APM, L-aspartyl-L-phenylalanine methyl ester, reference compound] (H-Asp-Phe-OMe)	150 time
C[C@@H]1[C@H]2CC[C@H](C2)[C@H]1C[C@@H](O)[C@@H](C)NC(=O)[C@@H](N)CC(=O)O [Compound A, (2R,3R)-3-N-(L-aspartyl)amino-1-2-butanol]	2,500 time
C[C@@H](NC(=O)[C@@H](N)CC(=O)O)[C@H](O)C[C@@H]1C[C@@H]2CC[C@@]1(C)C2 [Compound B, (2R,3R)-3-N-(L-aspartyl)amino-1-2-butanol]	3,300 time
OC[C@H]1O[C@@](CO)(O[C@H]2O[C@H](CO)[C@@H](O)[C@H](O)[C@H]2O)[C@@H](O)[C@@H]1O [Sucrose, sucrose, reference compound]	1 time

Assay: solubility in water
Type: physicochemical
Conditions: not given

solubility in water	Compound
highly soluble in water	C[C@@H](NC(=O)[C@@H](N)CC(=O)O)[C@H](O)CC1CC2CCC1(C)C2 (stereo partly drawn) [(2R,3R)-3-N-(L-aspartyl)amino-1-(1-methyl-2-norbornyl)-2-butanol]
highly soluble in water	CC1C2CCC(C2)C1C[C@@H](O)[C@@H](C)NC(=O)[C@@H](N)CC(=O)O (stereo partly drawn) [(2R,3R)-3-N-(L-aspartyl)amino-1-(3-methyl-2-norbornyl)-2-butanol]

Assay: degree of sweetness based on sucrose of compounds of differing absolute configuration
Conditions: not given
Protocol: Compounds of absolute configurations (a) and (b) of (RS,RS) and (S,S) were prepared by way of trial, and the degrees and characteristics of sweetness thereof were evaluated.

Compound	sweetness, in words
C[C@@H]1[C@H]2CC[C@H](C2)[C@H]1C[C@H](O)[C@H](C)NC(=O)[C@@H](N)CC(=O)O [(2S, 3S)-3-N-(L-aspartyl)amino-1-2-butanol]	scarcely any sweetness

Same assay, conditions: Table 2

Compound	Degree of sweetness based on sucrose
CC(NC(=O)[C@@H](N)CC(=O)O)C(O)C[C@@H]1C[C@@H]2CC[C@@]1(C)C2 (stereo partly shown)	800 time
CC(NC(=O)[C@@H](N)CC(=O)O)C(O)C[C@@H]1[C@@H]2CC[C@@H](C2)[C@H]1C (stereo partly shown)	850 time
C[C@@H]1[C@H]2CC[C@H](C2)[C@H]1C[C@H](O)[C@H](C)NC(=O)[C@@H](N)CC(=O)O [(2S, 3S)-3-N-(L-aspartyl)amino-1-2-butanol]	0 time
COC(=O)[C@H](Cc1ccccc1)NC(=O)[C@@H](N)CC(=O)O [APM, L-aspartyl-L-phenylalanine methyl ester, reference compound] (H-Asp-Phe-OMe)	250 time
CC(NC(=O)[C@@H](N)CC(=O)O)C(O)C[C@@H]1C(C)(C)[C@@H]2CC[C@@]1(C)C2 (stereo partly drawn) [C, 3-N-(L-aspartyl)-amino-1-d-α-fenchyl-2-butanol]	1,800 time
C[C@@H]1[C@H]2CC[C@H](C2)[C@H]1C[C@@H](O)[C@@H](C)NC(=O)[C@@H](N)CC(=O)O [Compound A, (2R,3R)-3-N-(L-aspartyl)amino-1-2-butanol]	2,500 time
C[C@@H](NC(=O)[C@@H](N)CC(=O)O)[C@H](O)C[C@@H]1C[C@@H]2CC[C@@]1(C)C2 [Compound B, (2R,3R)-3-N-(L-aspartyl)amino-1-2-butanol]	3,300 time

Assay: degree of sweetness of L-aspartyl fenchyl amino alcohols by absolute configuration at (a) and (b)
Conditions: not given
Protocol: Subsequent studies by the inventors have disclosed that the sweetness essentially depends on the absolute configuration at the (a) and (b) positions in the following formula (i). For example, compounds of the following general formula: [drawing 1]
wherein R1 is methyl group while R2 is fenchyl group:
The absolute configurations at the (a) and (b) positions are determined by resolving amino alcohol derivatives with tartaric acid to thereby give p-bromobenzoic acid amide derivatives of the following formula (ii) and then analyzing the crystal structures thereof with X-rays: [drawing 2]

Compound	degree of sweetness, in words
C[C@@H](NC(=O)[C@@H](N)CC(=O)O)[C@H](O)CC1C2(C)CCC(C2)C1(C)C (stereo partly drawn) [(R,R)]	highest degree of sweetness
C[C@@H](NC(=O)[C@@H](N)CC(=O)O)[C@@H](O)CC1C2(C)CCC(C2)C1(C)C (stereo partly drawn) [(R,S)]	scarcely any sweetness
C[C@H](NC(=O)[C@@H](N)CC(=O)O)[C@H](O)CC1C2(C)CCC(C2)C1(C)C (stereo partly drawn) [(S,R)]	scarcely any sweetness
C[C@H](NC(=O)[C@@H](N)CC(=O)O)[C@@H](O)CC1C2(C)CCC(C2)C1(C)C (stereo partly drawn) [(S,S)]	scarcely any sweetness

Same assay, conditions: R1 methyl, R2 fenchyl; absolute configuration (a),(b)

Compound	Degree of sweetness
C[C@@H](NC(=O)[C@@H](N)CC(=O)O)[C@H](O)CC1C2(C)CCC(C2)C1(C)C (stereo partly drawn) [(R,R)]	12,500
C[C@@H](NC(=O)[C@@H](N)CC(=O)O)[C@@H](O)CC1C2(C)CCC(C2)C1(C)C (stereo partly drawn) [(R,S)]	0
C[C@H](NC(=O)[C@@H](N)CC(=O)O)[C@H](O)CC1C2(C)CCC(C2)C1(C)C (stereo partly drawn) [(S,R)]	0
C[C@H](NC(=O)[C@@H](N)CC(=O)O)[C@@H](O)CC1C2(C)CCC(C2)C1(C)C (stereo partly drawn) [(S,S)]	0
CC(NC(=O)[C@@H](N)CC(=O)O)C(O)C[C@@H]1C(C)(C)[C@@H]2CC[C@@]1(C)C2 (stereo partly drawn) [C, 3-N-(L-aspartyl)-amino-1-d-α-fenchyl-2-butanol]	1,800

Assay: not given
Conditions: versus APM; cited from earlier work

Compound	stability at 80° C. and at a pH of 4
COC(=O)C(NC(=O)[C@@H](N)CC(=O)O)C(=O)OC1C2(C)CCC(C2)C1(C)C (mixture of isomers) [AMF, L-aspartyl-DL-aminomalonic acid methyl fenchyl ester]	inferior to APM in stability at 80 °C and at a pH of 4

Assay: sweetness characteristics of diluted aqueous solution
Conditions: not given

Compound	disagreeable tastes (bitter taste, bad taste, unpleasant aftertaste)	sweetness characteristics
C[C@@H](NC(=O)[C@@H](N)CC(=O)O)[C@H](O)CC1CC2CCC1(C)C2 (stereo partly drawn) [(2R,3R)-3-N-(L-aspartyl)amino-1-(1-methyl-2-norbornyl)-2-butanol]	almost no disagreeable tastes	closely similar to those of sucrose
CC1C2CCC(C2)C1C[C@@H](O)[C@@H](C)NC(=O)[C@@H](N)CC(=O)O (stereo partly drawn) [(2R,3R)-3-N-(L-aspartyl)amino-1-(3-methyl-2-norbornyl)-2-butanol]	almost no disagreeable tastes	closely similar to those of sucrose

Assay: not given
Conditions: among dipeptide esters known so far; cited from earlier work

Compound	degree of sweetness, in words
COC(=O)C(NC(=O)[C@@H](N)CC(=O)O)C(=O)OC1C2(C)CCC(C2)C1(C)C (mixture of isomers) [AMF, L-aspartyl-DL-aminomalonic acid methyl fenchyl ester]	highest degree of sweetness

Assay: sweetness characteristics in standard cola beverage, nine panelists
Conditions: cola beverage stored at 37° C. for 26 days, 1 extremely poor to 9 extremely excellent, sweetener at 30 to 520 ppm
Protocol: The sweetness characteristics were evaluated in the following manner.
A standard beverage was prepared by adding the following materials to 1600 ml of carbonated water:
Various sweeteners were added to the standard beverage each at a definite concentration. The beverages thus obtained were stored at 37° C. for 26 days and then evaluated by nine panelists according to the following criterion.

Compound	Average score
CC(NC(=O)[C@@H](N)CC(=O)O)C(O)C[C@@H]1C[C@@H]2CC[C@@]1(C)C2 (stereo partly shown)	5.1
CC(NC(=O)[C@@H](N)CC(=O)O)C(O)C[C@@H]1[C@@H]2CC[C@@H](C2)[C@H]1C (stereo partly shown)	5.0
COC(=O)[C@H](Cc1ccccc1)NC(=O)[C@@H](N)CC(=O)O [APM, L-aspartyl-L-phenylalanine methyl ester, reference compound] (H-Asp-Phe-OMe)	5.8
CC(NC(=O)[C@@H](N)CC(=O)O)C(O)C[C@@H]1C(C)(C)[C@@H]2CC[C@@]1(C)C2 (stereo partly drawn) [C, 3-N-(L-aspartyl)-amino-1-d-α-fenchyl-2-butanol]	4.1
C[C@@H]1[C@H]2CC[C@H](C2)[C@H]1C[C@@H](O)[C@@H](C)NC(=O)[C@@H](N)CC(=O)O [Compound A, (2R,3R)-3-N-(L-aspartyl)amino-1-2-butanol]	6.2
C[C@@H](NC(=O)[C@@H](N)CC(=O)O)[C@H](O)C[C@@H]1C[C@@H]2CC[C@@]1(C)C2 [Compound B, (2R,3R)-3-N-(L-aspartyl)amino-1-2-butanol]	6.3
